Results as given in patent publication US8012942B2, “Carba-nucleoside analogs for antiviral treatment” (Gilead Sciences, Inc., priority 2009, dated 2011).
Read-outs that look alike come from different tables or passages of the source.

Assays:
[1] = system: Replicon cells; test: HCV EC50 determination, replicon luciferase assay; assay type: cell-based; settings: Hepatitis C virus, 72 h
Description: Replicon cells were seeded in 96-well plates at a density of 8×10^3 cells per well in 100 μL of culture medium, excluding Geneticin. Compound was serially diluted in 100% DMSO and then added to the cells at a 1:200 dilution, achieving a final concentration of 0.5% DMSO and a total volume of 200 μL. Plates were incubated at 37° C. for 3 days, after which culture medium was removed and cells were lysed in lysis buffer provided by Promega's luciferase assay system. Following the manufacturer's instruction, 100 μL of luciferase substrate was added to the lysed cells and luciferase activity was measured in a TopCount luminometer.

[2] = target: T1, HCV Δ21 NS5b polymerase (Hepatitis C virus genotype 1b, UniProt Q9WMX2); test: HCV IC50 determination, NS5b polymerase assay; assay type: biochemical
T1 construct: 75 nM HCV Δ21 NS5b polymerase
Description: Assay Protocol: Either wild type or S282T (Migliaccio, et al, J. Biol. Chem. 2003, 49164-49170; Klumpp, et al., J. Biol. Chem. 2006, 3793-3799) mutant polymerase enzyme was used in this assay. NS5b polymerase assay (40 μL) was assembled by adding 28 μL polymerase mixture (final concentration: 50 mM Tris-HCl at pH 7.5, 10 mM KCL, 5 mM MgCl2, 1 mM DTT, 10 mM EDTA, 4 ng/μL of RNA template, and 75 nM HCV Δ21 NS5b polymerase) to assay plates followed by 4 μL of compound dilution. The polymerase and compound were pre-incubated at 35° C. for 10 minute before the addition of 8 μL of nucleotide substrate mixture (33P-α-labeled competing nucleotide at KM and 0.5 mM of the remaining three nucleotides). The assay plates were covered and incubated at 35° C. for 90 min. Reactions were then filtered through 96-well DEAE-81 filter plates via vacuum. The filter plates were then washed under vacuum with multiple volumes of 0.125 M NaHPO4, water, and ethanol to remove unincorporated label. Plates were then counted on TopCount to assess the level of product synthesis over background controls. The IC50 value is determined using Prism fitting program.

[3] = replicon cells, 3 days at 37° C., luciferase activity, read-out: EC50

SMILES	EC50 [1, 3] [µM]	IC50 [2] [µM]	other results
C[C@@]1(O)[C@H](O)[C@@H](CO)O[C@H]1c1scc2c(N)ncnc12 [Compound 1]	90	–	–
CC(C)(C)C(=O)SCCOP(=O)(OCCSC(=O)C(C)(C)C)OC[C@H]1O[C@@H](c2scc3c(N)ncnc23)[C@](C)(O)[C@@H]1O [Compound 2]	6.1	–	–
C[C@@]1(O)[C@H](O)[C@@H](COP(=O)(O)OP(=O)(O)OP(=O)(O)O)O[C@H]1c1scc2c(N)ncnc12 [Compound 4]	–	0.37	–
CC(C)(C)C(=O)SCCOP(=O)(OCCSC(=O)C(C)(C)C)OC[C@H]1O[C@@H](c2scc3c(=O)[nH]c(N)nc23)[C@](C)(O)[C@@H]1O [Compound 62]	24	–	–
C[C@@]1(O)[C@H](O)[C@@H](COP(=O)(O)OP(=O)(O)OP(=O)(O)O)O[C@H]1c1scc2c(=O)[nH]c(N)nc12 [Compound 63]	–	0.27	–
CCOC(=O)[C@H](C)NP(=O)(OC[C@H]1O[C@@H](c2scc3c(N)ncnc23)[C@](C)(O)[C@@H]1O)Oc1ccccc1 (stereo partly drawn) [Compound 64]	–	–	EC50 [1]: 2.9 µM
